Assay results from patent US4698352A, “4-oxo-1,4-dihydronicotinic acid derivatives, salts thereof, and antibacterial agents containing the same” (Toyama Chemical Co., Ltd., priority 1982, dated 1987).
Converted amounts (≈) assume the structure as drawn. Read-outs that look alike come from different tables or passages of the source.

How the values were obtained:
Assay in all cases: Antibacterial activity (MIC), agar dilution
Format in all cases: cell-based
E. coli NIHJ JC-2 = settings: Escherichia coli, NIHJJC2, 20 h
Source text: (§1) The amount of bacteria inoculated was 10^4 cells per plate (10^6 cells per ml).

E. coli TK-111 = settings: Escherichia coli, TK111, 20 h, E. coli TK-111; 10^6 cells per ml; 37° C., 20 hours; read-out: MIC
Source text: as §1

Ent. cloacae IID977 = settings: Enterobacter cloacae, IID977, 20 h
Source text: as §1

Kl. pneumoniae Y-41 = settings: Klebsiella pneumoniae, Y41, 10^6 cells per ml, 37° C., 20 hours, read-out: MIC
Source text: as §1

Kl. pneumoniae Y-50 = settings: Klebsiella pneumoniae, Y50, 20 h, 10^6 cells per ml, 37° C., read-out: MIC
Source text: as §1

Pro. mirabilis T-111 = settings: Proteus mirabilis, 37° C.
Source text: as §1

Pro. morganii T-216 = settings: Morganella morganii, 37° C.
Source text: as §1

Pro. vulgaris GN3027 = settings: Proteus vulgaris, GN3027, 20 h, Pro. vulgaris GN3027; 10^6 cells per ml; 37° C., 20 hours; read-out: MIC
Source text: as §1

Ps. aeruginosa IFO3445 = settings: Pseudomonas aeruginosa
Source text: as §1

Ps. aeruginosa S-68 = settings: Pseudomonas aeruginosa
Source text: as §1

St. aureus FDA209P = settings: Staphylococcus aureus, FDA209P, 20 h, St. aureus FDA209P; 10^6 cells per ml; 37° C., 20 hours; read-out: MIC
Source text: as §1

E. coli TK-3* = settings: Escherichia coli, 20 h
Source text: as §1
(§2) * Penicillinase-producing bacteria

Kl. pneumoniae Y-4* = settings: Klebsiella pneumoniae, 20 h, Kl. pneumoniae Y-4, penicillinase-producing; 10^6 cells per ml; read-out: MIC
Source text: as §1, §2

Ps. aeruginosa GN3379* = settings: Pseudomonas aeruginosa, Ps. aeruginosa GN3379, penicillinase-producing, 10^6 cells per ml
Source text: as §1, §2

St. aureus F-137* = settings: Staphylococcus aureus, 20 h, St. aureus F-137, penicillinase-producing; 10^6 cells per ml; read-out: MIC
Source text: as §1, §2

E. coli GN5482** = settings: Escherichia coli, 20 h; E. coli GN5482, cephalospolinase-producing; 10^6 cells per ml; read-out: MIC
Source text: as §1
(§3) ** Cephalospolinase-producing bacteria

Pro. vulgaris GN76** = settings: Proteus vulgaris, 20 h; Pro. vulgaris GN76, cephalospolinase-producing; 10^6 cells per ml; read-out: MIC
Source text: as §1, §3

Ps. aeruginosa GN918** = settings: Pseudomonas aeruginosa, 20 h; Ps. aeruginosa GN918, cephalospolinase-producing; 10^6 cells per ml; read-out: MIC
Source text: as §1, §3

Aci. antitratus A-6 = settings: 20 h, Aci. antitratus A-6; 10^6 cells per ml; 37° C., 20 hours; read-out: MIC
Source text: as §1

[1] = E. coli NIHJ JC-2, 10^6 cells per ml, 37° C., 20 hours, read-out: MIC
[2] = Ent. cloacae IID977, 10^6 cells per ml, 37° C., 20 hours, read-out: MIC
[3] = T111, 10^6 cells per ml, 20 hours, read-out: MIC
[4] = T216, 10^6 cells per ml, 20 hours, read-out: MIC
[5] = Ps. aeruginosa IFO3445, 10^6 cells per ml, 37° C., 20 hours, read-out: MIC
[6] = S68, Ps. aeruginosa S-68, 10^6 cells per ml, 37° C., 20 hours, read-out: MIC
[7] = E. coli TK-3, penicillinase-producing, 10^6 cells per ml, read-out: MIC

SMILES | MIC (E. coli TK-111) [mg/L] | MIC (Kl. pneumoniae Y-41) [mg/L] | MIC (Kl. pneumoniae Y-50) [mg/L] | MIC (Pro. mirabilis T-111; T111, 20 h, 10^6 cells per ml) [mg/L] | MIC (Pro. vulgaris GN3027) [mg/L] | MIC (Ps. aeruginosa IFO3445; IFO3445, 20 h) [mg/L] | MIC (Ps. aeruginosa S-68; S68, 20 h) [mg/L] | MIC (St. aureus FDA209P) [mg/L] | MIC (Kl. pneumoniae Y-4*) [mg/L] | MIC (Ps. aeruginosa GN3379*; GN3379, 20 h) [mg/L] | MIC (St. aureus F-137*) [mg/L] | MIC (E. coli GN5482**) [mg/L] | MIC (Pro. vulgaris GN76**) [mg/L] | MIC (Ps. aeruginosa GN918**) [mg/L] | MIC (E. coli NIHJ JC-2; [1]) [mg/L] | MIC (Ent. cloacae IID977; [2]) [mg/L] | MIC (Pro. morganii T-216; [4]) [mg/L] | MIC (E. coli TK-3*; [7]) [mg/L] | MIC (Ps. aeruginosa GN3379*; 20 h, read-out: MIC) [mg/L] | MIC (Aci. antitratus A-6) [mg/L] | other results
O=C(O)c1cn(-c2ccc(F)cc2)c(-c2cc3ccccc3s2)cc1=O | 0.78 (≈ 2.13 µM) | 6.25 (≈ 17.1 µM) | 3.13 (≈ 8.57 µM) | 3.13 (≈ 8.57 µM) | 0.39 (≈ 1.07 µM) | 12.5 (≈ 34.2 µM) | 6.25 (≈ 17.1 µM) | 0.78 (≈ 2.13 µM) | 12.5 (≈ 34.2 µM) | 12.5 (≈ 34.2 µM) | 0.39 (≈ 1.07 µM) | 0.39 (≈ 1.07 µM) | 1.56 (≈ 4.27 µM) | 1.56 (≈ 4.27 µM) | – | – | – | – | – | – | MIC (E. coli NIHJ JC-2): 3.13 mg/L (≈ 8.57 µM); MIC (Ent. cloacae IID977): 3.13 mg/L (≈ 8.57 µM); MIC (Pro. morganii T-216; T216, 20 h, 10^6 cells per ml): 3.13 mg/L (≈ 8.57 µM); MIC (E. coli TK-3*): 3.13 mg/L (≈ 8.57 µM)
Cc1cc(O)ccc1-n1cc(C(=O)O)c(=O)cc1-c1ccc(-c2cccs2)cc1 | ≤ 0.05 | 0.78 (≈ 1.93 µM) | 0.39 (≈ 0.967 µM) | – | ≤ 0.05 | – | – | ≤ 0.05 | 0.78 (≈ 1.93 µM) | – | ≤ 0.05 | ≤ 0.05 | 0.2 (≈ 0.496 µM) | 0.78 (≈ 1.93 µM) | 0.1 (≈ 0.248 µM) | 0.39 (≈ 0.967 µM) | 0.39 (≈ 0.967 µM) | 0.39 (≈ 0.967 µM) | 3.13 (≈ 7.76 µM) | – | MIC (Pro. mirabilis T-111; [3]): 0.39 mg/L (≈ 0.967 µM); MIC (Ps. aeruginosa IFO3445; [5]): 6.25 mg/L (≈ 15.5 µM); MIC (Ps. aeruginosa S-68; [6]): 1.56 mg/L (≈ 3.87 µM)
O=C(O)c1cn(-c2ccc(O)cc2)c(-c2ccc3ccsc3c2)cc1=O | ≤ 0.05 | 0.78 (≈ 2.15 µM) | 0.39 (≈ 1.07 µM) | 1.56 (≈ 4.29 µM) | ≤ 0.05 | 1.56 (≈ 4.29 µM) | 1.56 (≈ 4.29 µM) | 0.1 (≈ 0.275 µM) | 1.56 (≈ 4.29 µM) | – | 0.1 (≈ 0.275 µM) | ≤ 0.05 | 0.39 (≈ 1.07 µM) | 0.78 (≈ 2.15 µM) | 0.2 (≈ 0.55 µM) | 0.39 (≈ 1.07 µM) | 0.39 (≈ 1.07 µM) | 0.39 (≈ 1.07 µM) | 3.13 (≈ 8.61 µM) | – | –
CC(=O)Oc1ccc(-n2cc(C(=O)O)c(=O)cc2-c2cc3ccccc3o2)cc1 | 0.78 (≈ 2 µM) | 6.25 (≈ 16.1 µM) | 0.78 (≈ 2 µM) | 6.25 (≈ 16.1 µM) | 0.39 (≈ 1 µM) | 6.25 (≈ 16.1 µM) | 6.25 (≈ 16.1 µM) | 0.39 (≈ 1 µM) | 12.5 (≈ 32.1 µM) | 6.25 (≈ 16.1 µM) | 0.39 (≈ 1 µM) | 0.2 (≈ 0.514 µM) | 1.56 (≈ 4.01 µM) | – | 1.56 (≈ 4.01 µM) | 3.13 (≈ 8.04 µM) | 3.13 (≈ 8.04 µM) | 3.13 (≈ 8.04 µM) | – | 0.78 (≈ 2 µM) | –
COc1ccc(-c2ccc(-c3cc(=O)c(C(=O)O)cn3-c3ccc(O)cc3)s2)cc1 | 0.1 (≈ 0.238 µM) | 1.56 (≈ 3.72 µM) | 0.78 (≈ 1.86 µM) | 1.56 (≈ 3.72 µM) | 0.2 (≈ 0.477 µM) | 3.13 (≈ 7.46 µM) | 1.56 (≈ 3.72 µM) | 0.1 (≈ 0.238 µM) | 3.13 (≈ 7.46 µM) | – | 0.1 (≈ 0.238 µM) | ≤ 0.05 | 0.39 (≈ 0.93 µM) | – | 0.39 (≈ 0.93 µM) | 0.78 (≈ 1.86 µM) | 0.78 (≈ 1.86 µM) | 0.78 (≈ 1.86 µM) | 6.25 (≈ 14.9 µM) | 0.39 (≈ 0.93 µM) | –
CN(C)c1ccc(-c2cc(=O)c(C(=O)O)cn2-c2ccc(O)cc2F)cc1 | ≤ 0.05 | 3.13 (≈ 8.5 µM) | 0.2 (≈ 0.543 µM) | – | ≤ 0.05 | – | – | ≤ 0.05 | 0.78 (≈ 2.12 µM) | 3.13 (≈ 8.5 µM) | ≤ 0.05 | ≤ 0.05 | 0.2 (≈ 0.543 µM) | – | 0.1 (≈ 0.271 µM) | 0.2 (≈ 0.543 µM) | 0.78 (≈ 2.12 µM) | 0.2 (≈ 0.543 µM) | – | 0.1 (≈ 0.271 µM) | MIC (Pro. mirabilis T-111; [3]): 0.78 mg/L (≈ 2.12 µM); MIC (Ps. aeruginosa IFO3445; [5]): 1.56 mg/L (≈ 4.23 µM); MIC (Ps. aeruginosa S-68; [6]): 0.78 mg/L (≈ 2.12 µM)
O=C(O)c1cn(-c2ccc(O)cc2)c(-c2ccc(-c3ccc(O)cc3)s2)cc1=O | ≤ 0.05 | 3.13 (≈ 7.72 µM) | 0.78 (≈ 1.92 µM) | 6.25 (≈ 15.4 µM) | 0.39 (≈ 0.962 µM) | 3.13 (≈ 7.72 µM) | 6.25 (≈ 15.4 µM) | 0.1 (≈ 0.247 µM) | 6.25 (≈ 15.4 µM) | 3.13 (≈ 7.72 µM) | 0.2 (≈ 0.493 µM) | ≤ 0.05 | 0.78 (≈ 1.92 µM) | – | 0.39 (≈ 0.962 µM) | 1.56 (≈ 3.85 µM) | 1.56 (≈ 3.85 µM) | 0.78 (≈ 1.92 µM) | – | 0.78 (≈ 1.92 µM) | –
